Data from patent US20240247252A1, “NOVEL COMPOUNDS FOR THE DEVELOPMENT OF REVERSIBLE COVALENT DRUGS” (The Trustees of Boston College, priority 2023, published 2024).
Positions of bridges follow the written chain, without caps; N, C: chain ends. Non-standard residues stand in square brackets, D forms with d. Residues, ends and D or L forms follow the SMILES beside them. *: point of attachment. X1 = O=Cc1ccccc1NCc1cc(C(=O)*)ccc1B(O)O; X2 = CC(=O)c1ccc(OCC(=O)*)cc1B(O)O; Dap = NC[C@H](N)C(=O)O

Key:
sortase A (SrtA) [1] = target: T1, sortase A (SrtA) (Staphylococcus aureus, UniProt Q2FV99); assay: SrtA binding kinetics, competition assay using W7-F as fluorescence reporter
Protocol: FIG. 1 illustrates reversible covalent inhibition of SrtA. […] The peptide's termini and the proximal lysine residues are labeled with the lysine ε-amines colored blue. […] FIG. 1(d) and FIG. 1(e) show SrtA binding kinetics of P3 and P5 recorded via a competition assay using W7-F as a fluorescence reporter.
Kinetic characterization of the P5-SrtA binding yielded a kon of 6.3 M^−1 s^−1, which is ˜300 times faster than the RMR1-lysine conjugation. The koff was determined to be 8.2×10^−6 s^−1, 4 times slower than the RMR1-lysine conjugation. The faster on-rate and slower off-rate are expected for the cooperative action between the covalent warhead and the W7 peptide that binds SrtA noncovalently.

[2] = tested on: SrtA on live S. aureus cells; assay: Long-lasting SrtA inhibition on S. aureus cells after washing away unbound inhibitor; type: cell-based, Staphylococcus aureus; details: unbound inhibitor washed away before substrate added, flow cytometry after 6 hours of incubation
Protocol: To test this hypothesis, the S. aureus cells was treated with P5 and then the unbound inhibitor was washed away before the fluorescent SrtA substrate was added. The S. aureus cells were subjected to flow cytometry analysis after 6 hours of incubation.

sortase A (SrtA) [3] = target: T1, sortase A (SrtA); assay: biochemical; type: binding
Protocol: For peptide conjugation, a —COOH derivative of RMR1 and 2-APBA was synthesized respectively. […] The resulting peptides were assessed for SrtA binding through a fluorescence polarization-based competition assay, in which a fluorophore labeled W7 (W7-F) was used as a reporter.

[4] = tested on: SrtA on live S. aureus cells; assay: SrtA inhibition on live S. aureus cells, labeling by fluorescent SrtA substrate FAM-GSLPETGGS, flow cytometry; type: cell-based, Staphylococcus aureus; details: live S. aureus in LB media, read-out: IC50 of SrtA-mediated fluorescence labeling
Protocol: The peptides for SrtA inhibition on live S. aureus cells was further tested. A fluorescently labeled SrtA substrate (FAM-GSLPETGGS) was mixed with S. aureus in LB media with or without a peptide inhibitor. The SrtA-mediated bacterial labeling was assessed using fluorescence microscopy and flow cytometry.

T1 sequence (Q2FV99 whole entry): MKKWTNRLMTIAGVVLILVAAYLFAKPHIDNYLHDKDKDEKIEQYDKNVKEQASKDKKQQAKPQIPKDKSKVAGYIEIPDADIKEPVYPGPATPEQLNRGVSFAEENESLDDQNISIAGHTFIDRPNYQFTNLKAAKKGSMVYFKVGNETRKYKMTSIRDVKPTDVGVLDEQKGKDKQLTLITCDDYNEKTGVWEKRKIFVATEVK

## CC[C@H](C)[C@@H]1NC(=O)[C@H](CC(C)C)NC(=O)[C@@H](NC(=O)[C@H](C)N)CSSC[C@@H](C(=O)NCC(=O)NCC(=O)NCC(=O)N[C@@H](CNC(=O)COc2ccc(C(C)=O)c(B(O)O)c2)C(N)=O)NC(=O)CNC(=O)CNC(=O)[C@H](Cc2c[nH]c3ccccc23)NC(=O)[C@H]([C@@H](C)O)NC(=O)[C@@H]2CCCN2C1=O [Compound P3] (H-ACLIPTWGGCGGG[Dap](X2)-NH2; disulfide 2-10)
Sortase A (SrtA) [1]
  SrtA binding kinetics in words: reached equilibrium instantaneously
[2]
  inhibition of SrtA-mediated fluorescence labeling after washing: marginal reduction
Sortase A (SrtA) [3]
  IC50: 4.6 µM
[4]
  IC50: 3.7 µM

## CC[C@H](C)[C@@H]1NC(=O)[C@H](CC(C)C)NC(=O)[C@@H](NC(=O)[C@H](C)NC(=O)CNC(=O)CNC(=O)CNC(=O)COc2ccc(C(C)=O)c(B(O)O)c2)CSSC[C@@H](C(N)=O)NC(=O)CNC(=O)CNC(=O)[C@H](Cc2c[nH]c3ccccc23)NC(=O)[C@H]([C@@H](C)O)NC(=O)[C@@H]2CCCN2C1=O [Compound P7] (X2-GGGACLIPTWGGC-NH2; disulfide 5-13)
Sortase A (SrtA) [3]
  IC50: 4.5 µM

## CC[C@H](C)[C@@H]1NC(=O)[C@H](CC(C)C)NC(=O)[C@@H](NC(=O)[C@H](C)NC(=O)CNC(=O)CNC(=O)CNC(=O)c2ccc(B(O)O)c(CNc3ccccc3C=O)c2)CSSC[C@@H](C(N)=O)NC(=O)CNC(=O)CNC(=O)[C@H](Cc2c[nH]c3ccccc23)NC(=O)[C@H]([C@@H](C)O)NC(=O)[C@@H]2CCCN2C1=O [Compound P8] (X1-GGGACLIPTWGGC-NH2; disulfide 5-13)
Sortase A (SrtA) [3]
  IC50: 3.8 µM

## CC[C@H](C)[C@@H]1NC(=O)[C@H](CC(C)C)NC(=O)[C@@H](NC(=O)[C@H](C)NC(C)=O)CSSC[C@@H](C(=O)NCC(=O)NCC(=O)NCC(=O)N[C@@H](CNC(=O)c2ccc(B(O)O)c(CNc3ccccc3C=O)c2)C(N)=O)NC(=O)CNC(=O)CNC(=O)[C@H](Cc2c[nH]c3ccccc23)NC(=O)[C@H]([C@@H](C)O)NC(=O)[C@@H]2CCCN2C1=O [Compound P5] (Ac-ACLIPTWGGCGGG[Dap](X1)-NH2; disulfide 2-10)
Sortase A (SrtA) [1]
  koff: 8.2e-06 s⁻¹
  koff, times slower than the RMR1-lysine conjugation: 4 times
  kon: 6.3 M⁻¹ s⁻¹
  kon, times faster than the RMR1-lysine conjugation: ~300 times
Sortase A (SrtA) [3]
  IC50: 1.3 µM

## CC[C@H](C)[C@@H]1NC(=O)[C@H](CC(C)C)NC(=O)[C@@H](NC(=O)[C@H](C)N)CSSC[C@@H](C(N)=O)NC(=O)CNC(=O)CNC(=O)[C@H](Cc2c[nH]c3ccccc23)NC(=O)[C@H]([C@@H](C)O)NC(=O)[C@@H]2CCCN2C1=O [Compound W7] (H-ACLIPTWGGC-NH2; disulfide 2-10)
Sortase A (SrtA) [3]
  IC50: 17 µM
